In BindingDB's records for doi:10.1021/jm051074u (Cephalon, 2007):

Target: Mitogen-activated protein kinase kinase kinase 10 (Homo sapiens, UniProt Q02779)
Assay: Mixed-Lineage Kinase Assays
Description: The MLK1, MLK2, and MLK3 assays were performed using the Millipore multiscreen trichloroacetic acid (TCA) in-plate format. IC50 values were calculated by nonlinear regression using the sigmoidal dose-response (variable slope) equation in GraphPad Prism.

Sequence of Mitogen-activated protein kinase kinase kinase 10 (Q02779 whole entry): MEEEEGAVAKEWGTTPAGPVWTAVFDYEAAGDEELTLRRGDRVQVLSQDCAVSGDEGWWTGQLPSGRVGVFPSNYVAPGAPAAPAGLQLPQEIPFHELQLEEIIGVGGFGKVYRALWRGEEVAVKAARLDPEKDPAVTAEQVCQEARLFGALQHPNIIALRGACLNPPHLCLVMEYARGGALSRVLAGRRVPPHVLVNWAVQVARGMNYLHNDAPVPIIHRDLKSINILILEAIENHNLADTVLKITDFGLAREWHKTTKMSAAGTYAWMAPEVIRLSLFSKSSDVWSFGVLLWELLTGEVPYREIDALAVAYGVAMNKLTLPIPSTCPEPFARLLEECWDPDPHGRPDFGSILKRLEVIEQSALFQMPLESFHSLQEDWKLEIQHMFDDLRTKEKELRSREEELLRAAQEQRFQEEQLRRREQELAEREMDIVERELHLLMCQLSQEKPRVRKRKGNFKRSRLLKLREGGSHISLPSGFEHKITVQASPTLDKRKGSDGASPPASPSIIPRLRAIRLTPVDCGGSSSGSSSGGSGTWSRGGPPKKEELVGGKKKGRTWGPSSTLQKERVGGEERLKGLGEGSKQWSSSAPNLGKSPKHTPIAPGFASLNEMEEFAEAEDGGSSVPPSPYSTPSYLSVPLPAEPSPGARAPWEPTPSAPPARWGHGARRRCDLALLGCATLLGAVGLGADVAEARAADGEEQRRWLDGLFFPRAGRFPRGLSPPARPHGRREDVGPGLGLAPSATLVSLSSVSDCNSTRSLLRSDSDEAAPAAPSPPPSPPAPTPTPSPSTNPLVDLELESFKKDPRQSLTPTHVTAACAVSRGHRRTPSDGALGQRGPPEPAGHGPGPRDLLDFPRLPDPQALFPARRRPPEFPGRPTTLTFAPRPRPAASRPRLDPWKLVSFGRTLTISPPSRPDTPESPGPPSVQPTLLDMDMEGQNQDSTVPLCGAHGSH

## COC(=O)[C@@]1(O)C[C@H]2O[C@]1(C)n1c3ccccc3c3c4c(c5c6ccccc6n2c5c31)C(=O)NC4
  IC50: 45 nM
